Converted amounts (≈) assume the structure as drawn.
Experiments:
[1] = Toxicity in CD1 mouse assessed as inhibition of intestinal transit by measuring percentage of distance traveled by charcoal meal at 40 mg/kg, po; assay type: organism-based; settings: in vivo
[2] = Toxicity in CD1 mouse PSNL model assessed as induction of opiate withdrawal by measuring expression of some behavioral signs measured immediately after naloxone injection at 1.25 mg/kg, ip BID for 11 days from day 13 to day 22 and measured on day 23; assay type: organism-based; settings: in vivo, 264 h, time 11 day
[3] = Toxicity in CD1 mouse PSNL model assessed as induction of opiate withdrawal by measuring expression of some behavioral signs measured immediately after naloxone injection at 5 mg/kg, ip BID for 11 days from day 13 to day 22 and measured on day 23; assay type: organism-based; settings: in vivo, 264 h, time 11 day
Mus musculus [4] = experiment: Antinociceptive activity in CD1 mouse PSNL model assessed as reduction in mechanical allodynia by measuring decrease in the pressure required to elicit withdrawal of the ipsilateral paw after von Frey filament stimulation at 5 mg/kg, ip BID for 11 days from day 13 to day 22; assay type: functional; settings: 264 h, time 11 day
Mus musculus [5] = experiment: Antinociceptive activity in CD1 mouse at 10 to 40 mg/kg, po co-treated with 64 mg/kg, sc sigma1R agonist PRE-084 by paw pressure test; assay type: functional; settings: dose 10-40 mg/kg
Mus musculus [6] = experiment: Antinociceptive activity in orally dosed CD1 mouse assessed as by paw pressure test; assay type: functional; settings: CD1, po
[7] = Thermodynamic solubility of compound at pH 2; assay type: physicochemical; settings: buffer, read-out: Therm_solubility
HepG2 [8] = experiment: Toxicity in human HepG2 cells assessed as reduction in cell viability up to 100 uM by neutral red uptake assay; assay type: cell-based
HepG2 [9] = experiment: Toxicity in human HepG2 cells assessed as reduction in cell viability up to 100 uM by MTT assay; assay type: cell-based
[10] = Intrinsic clearance in human liver microsomes; assay type: ADME, Microsome; settings: read-out: CLH
CYP3A4 = CYP3A4 (Homo sapiens, UniProt P08684); experiment: Inhibition of human CYP3A4 at 1 uM relative to control; assay type: ADME
CYP3A4, sequence (P08684 whole entry): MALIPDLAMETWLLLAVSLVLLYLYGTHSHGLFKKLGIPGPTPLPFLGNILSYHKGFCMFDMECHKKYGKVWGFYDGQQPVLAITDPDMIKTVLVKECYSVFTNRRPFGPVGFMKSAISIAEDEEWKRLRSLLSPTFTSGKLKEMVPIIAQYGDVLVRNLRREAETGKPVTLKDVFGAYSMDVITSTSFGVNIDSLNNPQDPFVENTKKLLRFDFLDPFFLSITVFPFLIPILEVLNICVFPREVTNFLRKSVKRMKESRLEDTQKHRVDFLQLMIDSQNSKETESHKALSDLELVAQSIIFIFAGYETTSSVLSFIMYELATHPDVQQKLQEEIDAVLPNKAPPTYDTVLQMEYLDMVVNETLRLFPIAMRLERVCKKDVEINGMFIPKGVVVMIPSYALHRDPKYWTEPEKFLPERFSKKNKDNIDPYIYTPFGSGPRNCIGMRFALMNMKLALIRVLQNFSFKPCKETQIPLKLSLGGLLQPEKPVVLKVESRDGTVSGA

CYP2D6 = CYP2D6 (Homo sapiens, UniProt P10635); experiment: Inhibition of human CYP2D6 at 1 uM relative to control; assay type: ADME
CYP2D6, sequence (P10635 whole entry): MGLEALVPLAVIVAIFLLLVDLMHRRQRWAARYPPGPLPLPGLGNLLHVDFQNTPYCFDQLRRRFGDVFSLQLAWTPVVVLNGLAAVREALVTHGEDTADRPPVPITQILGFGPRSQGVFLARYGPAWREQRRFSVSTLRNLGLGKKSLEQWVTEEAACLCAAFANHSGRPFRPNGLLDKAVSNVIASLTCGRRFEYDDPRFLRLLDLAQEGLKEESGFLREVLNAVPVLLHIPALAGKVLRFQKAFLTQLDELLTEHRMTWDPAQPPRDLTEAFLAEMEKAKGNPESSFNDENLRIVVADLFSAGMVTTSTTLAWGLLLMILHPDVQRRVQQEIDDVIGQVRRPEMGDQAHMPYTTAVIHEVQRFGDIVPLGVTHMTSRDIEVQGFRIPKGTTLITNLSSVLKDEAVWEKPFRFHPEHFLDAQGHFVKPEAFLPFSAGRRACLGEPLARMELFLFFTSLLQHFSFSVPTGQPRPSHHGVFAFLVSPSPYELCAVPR

CYP2C19 = CYP2C19 (Homo sapiens, UniProt P33261); experiment: Inhibition of human CYP2C19 at 1 uM relative to control; assay type: ADME
CYP2C19, sequence (P33261 whole entry): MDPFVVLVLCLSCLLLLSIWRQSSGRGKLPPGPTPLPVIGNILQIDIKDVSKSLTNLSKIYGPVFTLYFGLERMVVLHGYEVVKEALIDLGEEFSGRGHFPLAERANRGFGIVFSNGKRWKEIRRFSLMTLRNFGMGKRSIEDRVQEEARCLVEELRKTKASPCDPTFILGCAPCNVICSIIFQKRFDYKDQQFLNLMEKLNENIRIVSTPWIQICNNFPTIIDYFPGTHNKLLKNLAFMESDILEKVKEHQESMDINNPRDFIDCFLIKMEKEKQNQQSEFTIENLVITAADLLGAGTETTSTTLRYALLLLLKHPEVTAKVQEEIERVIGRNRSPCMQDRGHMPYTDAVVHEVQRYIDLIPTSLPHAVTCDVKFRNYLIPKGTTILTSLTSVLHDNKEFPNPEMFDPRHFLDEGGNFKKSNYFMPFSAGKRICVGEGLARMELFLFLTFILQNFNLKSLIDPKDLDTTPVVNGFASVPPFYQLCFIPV

CYP2C9 = CYP2C9 (Homo sapiens, UniProt P11712); experiment: Inhibition of human CYP2C9 at 1 uM relative to control; assay type: ADME
CYP2C9, sequence (P11712 whole entry): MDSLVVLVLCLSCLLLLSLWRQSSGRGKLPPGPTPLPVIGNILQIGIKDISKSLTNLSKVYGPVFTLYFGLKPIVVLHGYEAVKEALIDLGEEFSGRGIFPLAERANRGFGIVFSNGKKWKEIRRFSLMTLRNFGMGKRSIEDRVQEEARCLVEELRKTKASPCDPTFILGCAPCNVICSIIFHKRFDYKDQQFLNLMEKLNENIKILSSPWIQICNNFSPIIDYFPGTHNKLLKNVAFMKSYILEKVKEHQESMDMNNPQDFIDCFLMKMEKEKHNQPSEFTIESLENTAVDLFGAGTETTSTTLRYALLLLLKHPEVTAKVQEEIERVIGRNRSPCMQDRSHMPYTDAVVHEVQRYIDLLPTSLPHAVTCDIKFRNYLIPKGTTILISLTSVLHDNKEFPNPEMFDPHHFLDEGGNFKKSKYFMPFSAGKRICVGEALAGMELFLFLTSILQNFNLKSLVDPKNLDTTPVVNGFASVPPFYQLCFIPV

CYP1A2 = target: T1, CYP1A2 (Homo sapiens, UniProt P05177); experiment: Inhibition of human CYP1A2 at 1 uM relative to control; assay type: ADME
T1 sequence (P05177 whole entry): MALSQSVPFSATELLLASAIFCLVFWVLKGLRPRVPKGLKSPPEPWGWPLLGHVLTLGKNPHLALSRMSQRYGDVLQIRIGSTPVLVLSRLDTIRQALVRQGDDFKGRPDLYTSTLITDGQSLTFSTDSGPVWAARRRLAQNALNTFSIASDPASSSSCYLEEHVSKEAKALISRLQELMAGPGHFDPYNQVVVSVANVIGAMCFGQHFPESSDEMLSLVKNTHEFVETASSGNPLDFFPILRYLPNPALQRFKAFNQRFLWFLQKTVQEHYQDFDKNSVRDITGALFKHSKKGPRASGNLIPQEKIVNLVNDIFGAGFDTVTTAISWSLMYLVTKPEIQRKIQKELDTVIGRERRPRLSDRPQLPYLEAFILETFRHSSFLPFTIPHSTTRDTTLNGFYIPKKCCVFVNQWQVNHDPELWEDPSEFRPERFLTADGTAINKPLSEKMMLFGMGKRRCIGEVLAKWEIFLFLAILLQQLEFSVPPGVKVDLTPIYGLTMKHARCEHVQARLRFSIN

[11] = Mutagenicity in Salmonella typhimurium by Ames test; assay type: toxicity; settings: salmonella enterica subsp. enterica serovar typhimurium
[12] = Permeability in human Caco-2 cells; assay type: ADME, cell-based
[13] = Thermodynamic solubility of compound at pH 7.4; assay type: physicochemical; settings: buffer, read-out: Therm_solubility
[14] = Distribution coefficient, logD of compound at pH 7.4; assay type: physicochemical; settings: octanol/water
[15] = Lipophilicity, logD of compound; assay type: physicochemical; settings: octanol/water
hERG (KCNH2) = hERG (KCNH2) (Homo sapiens, UniProt Q12809); experiment: Inhibition of human ERG expressed in CHO cells at 10 uM at -80 mV holding potential by whole cell patch clamp assay; assay type: cell-based; settings: CHO cells expressing human ERG
hERG (KCNH2), sequence (Q12809 whole entry): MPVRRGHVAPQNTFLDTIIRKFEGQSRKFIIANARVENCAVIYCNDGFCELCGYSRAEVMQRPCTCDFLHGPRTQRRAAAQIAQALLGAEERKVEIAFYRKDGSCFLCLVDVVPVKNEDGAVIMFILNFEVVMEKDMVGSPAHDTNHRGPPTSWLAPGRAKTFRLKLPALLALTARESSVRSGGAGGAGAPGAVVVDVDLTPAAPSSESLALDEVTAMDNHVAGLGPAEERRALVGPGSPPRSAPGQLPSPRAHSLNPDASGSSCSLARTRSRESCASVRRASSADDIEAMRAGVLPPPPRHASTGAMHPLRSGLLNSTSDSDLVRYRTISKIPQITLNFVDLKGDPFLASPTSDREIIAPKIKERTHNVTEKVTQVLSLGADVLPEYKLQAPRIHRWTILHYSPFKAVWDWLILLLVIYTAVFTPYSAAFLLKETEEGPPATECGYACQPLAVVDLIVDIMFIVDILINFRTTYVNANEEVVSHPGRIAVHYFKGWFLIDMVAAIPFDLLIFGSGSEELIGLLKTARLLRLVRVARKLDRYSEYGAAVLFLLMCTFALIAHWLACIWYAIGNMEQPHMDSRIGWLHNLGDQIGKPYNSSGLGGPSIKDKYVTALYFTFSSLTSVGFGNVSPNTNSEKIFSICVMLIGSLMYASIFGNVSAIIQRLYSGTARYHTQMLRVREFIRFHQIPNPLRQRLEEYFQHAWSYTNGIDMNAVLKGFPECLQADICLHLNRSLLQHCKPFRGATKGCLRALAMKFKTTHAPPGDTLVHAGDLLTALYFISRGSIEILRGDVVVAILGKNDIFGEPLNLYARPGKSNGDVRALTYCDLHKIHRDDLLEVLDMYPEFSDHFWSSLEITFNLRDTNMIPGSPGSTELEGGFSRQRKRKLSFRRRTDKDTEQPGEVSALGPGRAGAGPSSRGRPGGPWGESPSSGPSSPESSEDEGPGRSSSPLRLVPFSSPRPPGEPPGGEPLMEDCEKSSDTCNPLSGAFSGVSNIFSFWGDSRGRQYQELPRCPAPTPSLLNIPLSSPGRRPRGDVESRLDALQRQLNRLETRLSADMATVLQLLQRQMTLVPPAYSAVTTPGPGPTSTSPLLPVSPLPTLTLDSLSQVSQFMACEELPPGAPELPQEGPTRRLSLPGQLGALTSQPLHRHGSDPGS

[16] = target: T2, Alpha-1A adrenergic receptor (Homo sapiens) (UniProt P35348); experiment: Binding affinity to human alpha1A adrenoreceptor expressed in membranes assessed as inhibition of [3H]-prazosin binding incubated for 90 mins by scintillation counting method; design: concentration or dose not given beside the values; settings: Cell membrane
T2 sequence (whole entry): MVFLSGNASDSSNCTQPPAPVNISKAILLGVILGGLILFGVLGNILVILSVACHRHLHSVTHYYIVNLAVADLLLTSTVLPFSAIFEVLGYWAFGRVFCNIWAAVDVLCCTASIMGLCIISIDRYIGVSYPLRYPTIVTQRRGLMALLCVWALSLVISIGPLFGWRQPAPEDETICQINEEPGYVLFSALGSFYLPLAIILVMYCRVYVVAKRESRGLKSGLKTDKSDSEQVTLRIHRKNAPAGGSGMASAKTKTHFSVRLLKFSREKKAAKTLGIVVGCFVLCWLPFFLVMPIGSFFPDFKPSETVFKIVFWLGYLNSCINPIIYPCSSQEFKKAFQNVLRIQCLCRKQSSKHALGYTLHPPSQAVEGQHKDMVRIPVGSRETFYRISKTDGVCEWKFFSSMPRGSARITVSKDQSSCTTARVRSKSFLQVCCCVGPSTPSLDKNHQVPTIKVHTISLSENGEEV

[17] = target: Voltage-gated inwardly rectifying potassium channel KCNH2 (Homo sapiens, UniProt Q12809)
Voltage-gated inwardly rectifying potassium channel KCNH2, sequence (Q12809 whole entry): as the sequence (Q12809 whole entry) above
Description: Inhibition of human ERG expressed in CHO cells at -80 mV holding potential by whole cell patch clamp assay

For `CCN1CC2(CCN(CCc3cc(F)ccc3F)CC2)O[C@H](C)C1=O`, the Activity [1] was “Non-Toxic”, the Activity [2] was “Non-Toxic” and the Activity [3] was “Non-Toxic”. The inhibition in vivo at 5 mg/kg (Mus musculus [4]) was 56%, the Emax (Mus musculus [5]) was 40% and the Emax (Mus musculus [6]) was 64%. For the same compound, the solubility thermodynamic [7] was 45.1 mg/mL (≈ 128 mM), the Activity (HepG2 [8]) was “Non-Toxic” and the Activity (HepG2 [9]) was “Non-Toxic”. It also gave a microsomal CLint [10] of 2.4 µL/min/mg, an inhibition at 1 µM (CYP3A4) of less than 50% and an inhibition at 1 µM (CYP2D6) of less than 50%. It also gave an inhibition at 1 µM (CYP2C19) of less than 50%, an inhibition at 1 µM (CYP2C9) of less than 50% and an inhibition at 1 µM (CYP1A2) of less than 50%. The Activity [11] was “Non-Toxic”, the Papp [12] was 34.9 ×10⁻⁶ cm/s and the solubility thermodynamic [13] was 17.7 mg/mL (≈ 50.2 mM). For the same compound, the logD [14] was 2, the logD [15] was 2.7 and the inhibition at 10 µM (hERG (KCNH2)) was less than 50%. The inhibition [16] was 21% and the IC50 [17] was greater than 10 µM.
